Results published in patent US20250115597A1, “TYK2 INHIBITORS AND COMPOSITIONS AND METHODS THEREOF” (LYNK PHARMACEUTICALS CO. LTD., priority 2021, published 2025).
Where two headings read alike, the source gives them in different places.

Columns and labels:
[1] = molecular target: T1, Ba/F3-FL-TYK2-P760L cells (Homo sapiens, UniProt P29597, P760L, cells depend on it); test: Anti-proliferative assay, Ba/F3-FL-TYK2-P760L cells (Cell-Titer Glo); type: cell-based; settings: 72 h, read-out: BaF3-FL-T2P760L IC50
T1 construct: BaF3-FL-T2P760L (nM)
T1 sequence (P29597 whole entry P760L): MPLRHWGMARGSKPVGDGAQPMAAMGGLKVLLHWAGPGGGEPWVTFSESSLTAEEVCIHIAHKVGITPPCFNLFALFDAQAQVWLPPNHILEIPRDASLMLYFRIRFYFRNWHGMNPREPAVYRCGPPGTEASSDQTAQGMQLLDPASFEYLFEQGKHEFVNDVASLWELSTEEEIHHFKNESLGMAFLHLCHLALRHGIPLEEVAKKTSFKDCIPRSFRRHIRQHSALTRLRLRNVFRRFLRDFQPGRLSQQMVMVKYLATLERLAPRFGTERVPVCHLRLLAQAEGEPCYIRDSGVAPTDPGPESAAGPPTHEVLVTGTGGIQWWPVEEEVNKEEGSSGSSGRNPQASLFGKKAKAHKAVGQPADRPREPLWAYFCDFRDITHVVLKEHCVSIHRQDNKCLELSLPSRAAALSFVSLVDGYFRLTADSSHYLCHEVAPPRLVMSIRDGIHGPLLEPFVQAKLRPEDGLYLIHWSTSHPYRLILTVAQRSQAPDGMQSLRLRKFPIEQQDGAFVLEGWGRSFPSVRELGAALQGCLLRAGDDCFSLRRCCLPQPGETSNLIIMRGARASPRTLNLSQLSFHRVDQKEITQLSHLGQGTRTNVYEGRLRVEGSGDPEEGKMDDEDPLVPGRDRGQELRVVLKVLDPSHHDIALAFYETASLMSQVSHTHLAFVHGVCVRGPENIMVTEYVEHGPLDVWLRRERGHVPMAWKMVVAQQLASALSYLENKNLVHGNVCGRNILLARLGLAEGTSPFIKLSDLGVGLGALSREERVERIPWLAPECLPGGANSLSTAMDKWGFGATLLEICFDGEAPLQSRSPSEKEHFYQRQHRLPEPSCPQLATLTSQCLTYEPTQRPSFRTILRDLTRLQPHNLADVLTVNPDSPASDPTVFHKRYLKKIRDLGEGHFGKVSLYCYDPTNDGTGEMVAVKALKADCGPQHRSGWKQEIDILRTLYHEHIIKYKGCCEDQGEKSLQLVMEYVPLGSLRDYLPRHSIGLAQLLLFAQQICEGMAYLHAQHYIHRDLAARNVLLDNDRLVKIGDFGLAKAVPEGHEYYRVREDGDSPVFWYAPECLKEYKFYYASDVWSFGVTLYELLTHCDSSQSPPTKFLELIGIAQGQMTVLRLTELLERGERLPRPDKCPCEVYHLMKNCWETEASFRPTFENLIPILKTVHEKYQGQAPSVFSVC
Procedure, shortened: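 Compound exposure ran 72 h at 37 °C in 5% CO2 across nine 3-fold concentrations from a 20 μM top dose, added 24 h after seeding 2000 cells/well.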

[2] = Microsomal metabolic stability assay; type: in vitro ADME; settings: pH 7.4, 0.5 mg/mL protein, 1 μM compound
Description: Microsomal Metabolic Stability Assay
Microsomes were pre-incubated with test compound or control compounds for 5 min at 37° C. in 100 mM potassium phosphate buffer, pH 7.4, 1.0 mM EDTA. The reaction was initiated by addition of 15 μL of the NADPH regenerating system to 30 μL of each incubation mixture per time point. The final incubation condition was composed of 0.5 mg/mL microsomal protein, 1 μM test article/positive control, 2 mM NADPH. The 0-minute samples were prepared by addition of a 30 μL aliquot of each incubation mixture to 135 μL quench reagent to precipitate proteins. And then a 15 μL aliquot of the NADPH regenerating system was added. At 5, 15, 30 and 45 minutes, the reaction will be stopped by the addition of cold acetonitrile solution containing internal standard. The samples taken at all time points were centrifuged at 5000×g for 15 minutes. 50 μL of supernatant are taken into 96-well assay plates pre-added with 50 μL ultrapure water, and then analyzed by LC/MS/MS.
Concentrations of test articles, control compounds in the samples were determined by using LC/MS/MS method. Plotting of the chromatograms and peak area integrations are carried out by Analyst (AB Sciex).
n the determination of the in vitro elimination constant (ke) of the control compounds, the analyte/internal standard peak area ratios will be converted to percentage remaining (% Remaining) with the following equation: […]
The slope was measured by the natural logarithm of the percentage of the residual compound and time, T1/2 was calculated according to the following formula.

[3] = dog liver microsomes, read-out: Dog LM Clint
[4] = dog liver microsomes, read-out: Dog LM T½
[5] = human liver microsomes, read-out: Human LM Clint
[6] = human liver microsomes, read-out: Human LM T½
[7] = rat liver microsomes, read-out: Rat LM Clint
[8] = rat liver microsomes, read-out: Rat LM T½

SMILES | GI50 [1] | microsomal CLint at 1 μM [2, 3] | half-life at 1 μM [2, 4] | microsomal CLint at 1 μM [2, 5] | half-life at 1 μM [2, 6] | microsomal CLint at 1 μM [2, 7] | half-life at 1 μM [2, 8]
[2H]C([2H])([2H])NC(=O)c1cnc(Nc2cccc(F)n2)cc1Nc1cn(C)c2c(Cl)cn(CC)c(=O)c12 [Example 161, 4-((7-Chloro-5-ethyl-1-methyl-4-oxo-4,5-dihydro-1H-pyrrolo[3,2-c]pyridin-3-yl)amino)-6-((6-fluoropyridin-2-yl)amino)-N-(methyl-d3)nicotinamide] | 0.0216 µM | 27.2 µL/min/mg | 51 min | 74.6 µL/min/mg | 18.6 min | 63.5 µL/min/mg | 21.8 min
[2H]C([2H])([2H])NC(=O)c1cnc(NC(=O)C2CC2)cc1Nc1cnn2ccn(CC(F)(F)F)c(=O)c12 [Example 45, 6-(Cyclopropanecarboxamido)-N-(methyl-d3)-4-((4-oxo-5-(2,2,2-trifluoroethyl)-4,5-dihydropyrazolo[1,5-a]pyrazin-3-yl)amino)nicotinamide] | 0.16 µM | 8.76 µL/min/mg | 158 min | 51.9 µL/min/mg | 26.7 min | 110 µL/min/mg | 12.6 min
[2H]C([2H])([2H])NC(=O)c1cnc(Nc2ccn(C)n2)cc1Nc1ccc2cnn(CC)c2c1OC [Example 43, 4-((1-Ethyl-7-methoxy-1H-indazol-6-yl)amino)-N-(methyl-d3)-6-((1-methyl-1H-pyrazol-3-yl)amino)nicotinamide] | 0.0852 µM | 30.8 µL/min/mg | 45 min | 9.58 µL/min/mg | 145 min | 48.5 µL/min/mg | 28.6 min
[2H]C([2H])([2H])NC(=O)c1cnc(NC(=O)C2CC2)cc1Nc1cn(CCOC)c2ccn(C(C)C(F)(F)F)c(=O)c12 (centres unmarked) [Example 201, 6-(Cyclopropanecarboxamido)-4-((1-(2-methoxyethyl)-4-oxo-5-(1,1,1-trifluoropropan-2-yl)-4,5-dihydro-1H-pyrrolo[3,2-c]pyridin-3-yl)amino)-N-(methyl-d3)nicotinamide] | 0.162 µM | – | – | 64.4 µL/min/mg | 21.5 min | – | –
[2H]C([2H])([2H])NC(=O)c1cnc(NC(=O)C2CC2)cc1Nc1ccc2nnc(CC)n2c1OC [Example 58, 6-(Cyclopropanecarboxamido)-4-((3-ethyl-5-methoxy-[1,2,4]triazolo[4,3-a]pyridin-6-yl)amino)-N-(methyl-d3)nicotinamide] | > 5 µM | < 11.5 µL/min/mg | > 120 min | < 11.5 µL/min/mg | > 120 min | < 11.5 µL/min/mg | > 120 min
[2H]C([2H])([2H])NC(=O)c1cnc2nc1Nc1cc(cc(-c3ncn(C)n3)c1OC)COCc1cc(cc(F)c1F)N2 [Example 78, 18,19-Difluoro-10-methoxy-N-(methyl-d3)-11-(1-methyl-1H-1,2,4-triazol-3-yl)-15-oxa-2,4,8,23-tetraazatetracyclo[15.3.1.1^{3,7}.1^{9,13}]tricosa-1(20),3,5,7(23),9(22),10,12,17(21),18-nonaene-6-carboxamide] | 0.0465 µM | 8.5 µL/min/mg | 163 min | 22 µL/min/mg | 63 min | 21.4 µL/min/mg | 64.7 min
[2H]C([2H])([2H])NC(=O)c1cnc2cc1Nc1cc(cc(-c3ncn(C)n3)c1OC)COCc1nc(ccc1F)N2 [Example 66, 18-Fluoro-10-methoxy-N-(methyl-d3)-11-(1-methyl-1H-1,2,4-triazol-3-yl)-15-oxa-2,4,8,21-tetraazatetracyclo[15.3.1.1^{3,7}.1^{9,13}]tricosa-1(20),3,5,7(23),9(22),10,12,17(21),18-nonaene-6-carboxamide] | 0.0421 µM | 23.1 µL/min/mg | 59.9 min | 6.48 µL/min/mg | 214 min | 6.84 µL/min/mg | 203 min
[2H]C([2H])([2H])NC(=O)c1cnc(NC(=O)C2CC2)cc1Nc1cn(C)c2ncn(CC(F)(F)F)c(=O)c12 [Example 195, 6-(Cyclopropanecarboxamido)-N-(methyl-d3)-4-((7-methyl-4-oxo-3-(2,2,2-trifluoroethyl)-4,7-dihydro-3H-pyrrolo[2,3-d]pyrimidin-5-yl)amino)nicotinamide] | 0.56 µM | – | – | 40 µL/min/mg | 34.6 min | 8.8 µL/min/mg | 158 min
[2H]C([2H])([2H])NC(=O)c1cnc2nc1Nc1cc(cc(-c3ncn(C)n3)c1OC)COCc1cc(ccc1F)N2 [Example 76, 18-Fluoro-10-methoxy-N-(methyl-d3)-11-(1-methyl-1H-1,2,4-triazol-3-yl)-15-oxa-2,4,8,23-tetraazatetracyclo[15.3.1.1^{3,7}.1^{9,13}]tricosa-1(20),3,5,7(23),9(22),10,12,17(21),18-nonaene-6-carboxamide] | 0.0587 µM | 12.3 µL/min/mg | 113 min | 20.5 µL/min/mg | 67.5 min | 19.6 µL/min/mg | 70.7 min
COC(=O)c1cnc(NC(=O)C2CC2)cc1Nc1ncn2ccn(CC(F)(F)F)c(=O)c12 [Example 47, Methyl 6-(cyclopropanecarboxamido)-4-((8-oxo-7-(2,2,2-trifluoroethyl)-7,8-dihydroimidazo[1,5-a]pyrazin-1-yl)amino)nicotinate] | 0.18 µM | 25 µL/min/mg | 55.4 min | 45.2 µL/min/mg | 30.7 min | 80 µL/min/mg | 17.3 min
[2H]C([2H])([2H])NC(=O)c1cnc(NC(=O)C2CC2)cc1Nc1csc2c(Cl)cn(C([2H])([2H])[2H])c(=O)c12 [Example 174, 4-((7-Chloro-5-(methyl-d3)-4-oxo-4,5-dihydrothieno[3,2-c]pyridin-3-yl)amino)-6-(cyclopropanecarboxamido)-N-(methyl-d3)nicotinamide] | 0.147 µM | < 11.5 µL/min/mg | > 120 min | 18.2 µL/min/mg | 76.2 min | 25.9 µL/min/mg | 53.5 min
[2H]C([2H])([2H])NC(=O)c1cnc(NC(=O)C2CC2)cc1Nc1cn(C)c2c(F)cn(CC(F)(F)F)c(=O)c12 [Example 123, 6-(Cyclopropanecarboxamido)-4-((7-fluoro-1-methyl-4-oxo-5-(2,2,2-trifluoroethyl)-4,5-dihydro-1H-pyrrolo[3,2-c]pyridin-3-yl)amino)-N-(methyl-d3)nicotinamide] | 0.1 µM | 18.7 µL/min/mg | 84.8 min | 53 µL/min/mg | 26.2 min | 55.6 µL/min/mg | 25 min
[2H]C([2H])([2H])NC(=O)c1cnc2cc1Nc1cc(cc(-c3ncc(OC)cn3)c1OC)COCc1nc(ccc1F)N2 [Example 95, 18-Fluoro-10-methoxy-11-(5-methoxypyrimidin-2-yl)-N-(methyl-d3)-15-oxa-2,4,8,21-tetraazatetracyclo[15.3.1.1^{3,7}.1^{9,13}]tricosa-1(20),3,5,7(23),9(22),10,12,17(21),18-nonaene-6-carboxamide] | 0.0531 µM | < 11.5 µL/min/mg | > 120 min | < 11.5 µL/min/mg | > 120 min | < 11.5 µL/min/mg | > 120 min
[2H]C([2H])([2H])NC(=O)c1cnc(Nc2ccc(F)cn2)cc1Nc1cn(C)c2ccn(CC)c(=O)c12 [Example 99, 4-[(5-Ethyl-1-methyl-4-oxo-pyrrolo[3,2-c]pyridin-3-yl)amino]-6-[(5-fluoro-2-pyridyl)amino]-N-(methyl-d3)pyridine-3-carboxamide] | 0.0567 µM | 33.1 µL/min/mg | 105 min | 89.9 µL/min/mg | 38.5 min | 181 µL/min/mg | 19.1 min
